Data set [1] concerns the target T1, Mu receptor (CHOhMu) (Homo sapiens, UniProt P35372).
T1 construct: expressed in transfected cells; host or cells: CHO (Chinese Hamster Ovary)
As to the kind of experiment: GTPγ[35S] binding, CHOhMu membranes. The data set is classed as biochemical.

Data set [2] concerns the target T2, NOP receptor (CHOhNOP) (Homo sapiens, UniProt P41146).
T2 construct: expressed in transfected cells; host or cells: CHO (Chinese Hamster Ovary)
The experiment in a line: GTPγ[35S] binding, CHOhNOP membranes. The data set is classed as biochemical. (In general: GTPγS is a poorly hydrolysed GTP analogue; its binding reports G protein activation.)

Data set [3] deals with T3, Kappa receptor (CHOhKappa) (Homo sapiens, UniProt P41145).
T3 construct: expressed in transfected cells; host or cells: CHO (Chinese Hamster Ovary)
T3 sequence (P41145 whole entry): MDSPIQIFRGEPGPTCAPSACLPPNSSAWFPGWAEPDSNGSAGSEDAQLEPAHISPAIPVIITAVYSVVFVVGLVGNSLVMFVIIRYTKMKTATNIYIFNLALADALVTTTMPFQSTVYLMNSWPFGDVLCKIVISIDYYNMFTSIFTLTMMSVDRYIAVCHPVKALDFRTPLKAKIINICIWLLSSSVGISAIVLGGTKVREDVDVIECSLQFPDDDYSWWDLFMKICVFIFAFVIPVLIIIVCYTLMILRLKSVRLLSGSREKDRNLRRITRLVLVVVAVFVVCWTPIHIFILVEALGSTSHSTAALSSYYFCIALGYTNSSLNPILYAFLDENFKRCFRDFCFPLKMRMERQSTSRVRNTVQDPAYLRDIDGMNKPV
As to the kind of experiment: GTPγ[35S] binding, CHOhKappa membranes. The data set is classed as biochemical.

Data set [4] has as its target human NOP receptor (NOP-RLuc/Gβ1-RGFP) (Homo sapiens, UniProt P41146). The experiment in a line: biochemical. The data set is classed as biochemical.
Data set [5] deals with T4, Delta receptor (CHOhDelta) (Homo sapiens, UniProt P41143).
T4 construct: expressed in transfected cells; host or cells: CHO (Chinese Hamster Ovary)
T4 sequence (P41143 whole entry): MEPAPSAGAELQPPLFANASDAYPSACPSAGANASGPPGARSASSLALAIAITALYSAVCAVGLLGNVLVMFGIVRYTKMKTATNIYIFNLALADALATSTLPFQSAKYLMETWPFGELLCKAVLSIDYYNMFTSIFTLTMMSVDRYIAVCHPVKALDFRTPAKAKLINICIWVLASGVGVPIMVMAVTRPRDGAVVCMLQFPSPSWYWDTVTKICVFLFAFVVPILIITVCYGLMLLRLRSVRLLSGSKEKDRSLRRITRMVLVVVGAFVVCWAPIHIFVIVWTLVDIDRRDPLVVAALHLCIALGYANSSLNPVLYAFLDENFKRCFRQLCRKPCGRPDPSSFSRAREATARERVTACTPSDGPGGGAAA
As to the kind of experiment: GTPγ[35S] binding, CHOhDelta membranes. The data set is classed as biochemical.

The target of data set [6] is T1, Mu receptor (CHOhMu). As to the kind of experiment: Displacement binding of [3H]-DPN, CHOhMu membranes. To be noted: SEM. The procedure:
(§1) In the radioligand displacement binding assays, homogenization/wash buffer consisting of 50 mM Tris-HCl pH to 7.4 with KOH, for CHOhMu, CHOhDelta and CHOhKappa or additional 5 mM MgSO4 for CHOhNOP was used. Homogenisation buffer (50 mM Tris and 0.2 mM EGTA pH 7.4 with NaOH) was used in GTPγ[^35S] assays. Membranes were centrifuged at 20374 g for 10 min at 4°C. This process was repeated at least three times. The resulting pellet was resuspended in an appropriate amount of the necessary buffer and the protein concentration was determined by Lowry assay.
(§2) Samples were incubated for 1 hr at room temperature and reactions were terminated by vacuum filtration, onto PEI-soaked Whatman GF/B filters, using a Brandel harvester.

The target of data set [7] is T5, human Mu receptor (Mu-RLuc/β-arrestin 2-RGFP) (Homo sapiens, UniProt P35372).
T5 construct: expressed in transfected cells; host or cells: SH-SY5Y (retroviral expression; whole cells)
T5 sequence (P35372+P27652 fused): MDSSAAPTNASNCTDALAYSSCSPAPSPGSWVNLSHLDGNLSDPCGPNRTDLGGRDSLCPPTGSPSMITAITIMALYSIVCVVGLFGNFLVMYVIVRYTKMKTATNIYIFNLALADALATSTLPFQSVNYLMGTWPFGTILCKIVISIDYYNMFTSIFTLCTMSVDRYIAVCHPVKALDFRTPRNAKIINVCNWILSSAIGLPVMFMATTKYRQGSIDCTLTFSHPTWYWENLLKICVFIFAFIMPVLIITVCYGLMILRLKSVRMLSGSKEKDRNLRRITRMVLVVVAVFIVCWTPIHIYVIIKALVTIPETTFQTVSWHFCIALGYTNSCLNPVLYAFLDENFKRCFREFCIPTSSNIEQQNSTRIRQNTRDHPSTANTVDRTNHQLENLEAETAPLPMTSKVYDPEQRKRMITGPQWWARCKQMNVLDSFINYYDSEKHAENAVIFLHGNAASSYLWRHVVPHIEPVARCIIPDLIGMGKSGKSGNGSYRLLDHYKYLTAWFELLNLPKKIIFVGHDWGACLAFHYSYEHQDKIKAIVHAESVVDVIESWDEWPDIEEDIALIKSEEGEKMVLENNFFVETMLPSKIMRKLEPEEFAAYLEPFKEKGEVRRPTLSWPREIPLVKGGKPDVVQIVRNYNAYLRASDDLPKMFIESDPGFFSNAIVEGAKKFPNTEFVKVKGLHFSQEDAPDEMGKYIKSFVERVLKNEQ
T5 sequence (P32121 whole entry partner): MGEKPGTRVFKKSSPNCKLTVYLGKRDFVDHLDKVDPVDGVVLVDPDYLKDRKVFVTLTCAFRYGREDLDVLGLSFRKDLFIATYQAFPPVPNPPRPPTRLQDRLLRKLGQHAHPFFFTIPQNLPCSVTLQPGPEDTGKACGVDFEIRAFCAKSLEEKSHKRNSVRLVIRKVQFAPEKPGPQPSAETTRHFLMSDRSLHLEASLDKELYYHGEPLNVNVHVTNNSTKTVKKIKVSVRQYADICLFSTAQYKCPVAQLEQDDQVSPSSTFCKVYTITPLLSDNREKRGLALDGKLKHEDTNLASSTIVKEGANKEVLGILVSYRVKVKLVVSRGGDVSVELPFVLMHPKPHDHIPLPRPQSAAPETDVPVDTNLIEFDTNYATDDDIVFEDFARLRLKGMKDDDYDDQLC
The experiment in a line: BRET Mu-RLuc/β-arrestin 2-RGFP interaction, SH-SY5Y cells. In kind it is cell-based. In general terms: BRET reads energy transfer from a luciferase to a nearby fluorophore.

Another data set has as its system rats. The experiment in a line: Rota-rod test after intrathecal infusion. Particulars: same range of doses (0.1–1 nmol), data not shown. In kind it is in vivo, rat. The protocol: For all the experiments described below, male Sprague-Dawley rats (Harlan, Varese, Italy), weighing approximately 280-300g at the beginning of the experimental procedure, were used. Animals were housed in CeSAL (Centro Stabulazione Animali da Laboratorio, University of Florence) and used at least one week after their arrival. One rat was housed per cage (size 26x41 cm); animals were fed with standard laboratory diet and tap water ad libitum, and kept at 23±1°C with a 12 h light/dark cycle, light at 7 a.m. […] All animals were monitored daily using a scoring system (based on: Appearance, Food and Water Intake, Clinical Signs, Natural Behaviour and Provoked Behaviour. Maximum score is 20 and animals reaching 10 are euthanized. In the experiments reported here no animals reached this score and none died before the end of the experiment) and at the end of the experiment were euthanized by CO2 overdose. […]
Rota-rod apparatus (Ugo Basile, Varese, Italy) consisted of a base platform and a rotating rod with a diameter of 6 cm and a non-slippery surface. […] The integrity of motor coordination was assessed on the basis of the number of falls from the rod in 60s measured 15, 30, 45, 60, 90, 120 and 180 min after treatments.
Background: In the rotarod test animals must keep their balance on a rotating rod.

The target in data set [8] is T6, human Mu receptor (Mu-RLuc/Gβ1-RGFP) (Homo sapiens, UniProt P35372).
T6 construct: expressed in transfected cells; host or cells: SH-SY5Y (retroviral expression; membranes used)
T6 sequence (P35372 whole entry, looked up): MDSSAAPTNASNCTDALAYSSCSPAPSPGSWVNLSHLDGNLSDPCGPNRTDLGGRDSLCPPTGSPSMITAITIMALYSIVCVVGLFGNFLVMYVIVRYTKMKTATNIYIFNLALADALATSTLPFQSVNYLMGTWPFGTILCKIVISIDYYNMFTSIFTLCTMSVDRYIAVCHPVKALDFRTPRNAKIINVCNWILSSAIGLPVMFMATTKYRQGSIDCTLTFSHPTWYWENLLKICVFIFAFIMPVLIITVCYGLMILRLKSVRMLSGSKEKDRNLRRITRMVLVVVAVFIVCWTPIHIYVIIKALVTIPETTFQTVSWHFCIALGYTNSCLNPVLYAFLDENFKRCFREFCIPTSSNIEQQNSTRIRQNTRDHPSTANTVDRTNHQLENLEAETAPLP
As to the kind of experiment: BRET Mu-RLuc/Gβ1-RGFP interaction, SH-SY5Y membranes. In kind it is biochemical.

The target in data set [9] is T2, NOP receptor (CHOhNOP). The experiment in a line: Displacement binding of [3H]-UFP-101, CHOhNOP membranes. The procedure: as §1, §2
Another data set has as its target T7, human Mu receptor (Homo sapiens, UniProt P35372).
T7 construct: expressed in transfected cells; host or cells: CHO
The experiment in a line: Calcium mobilisation, CHO cells with Mu and Gαqi5. The data set is classed as cell-based.

Data set [10] addresses T8, human NOP receptor (NOP-RLuc/β-arrestin 2-RGFP) (Homo sapiens, UniProt P41146).
T8 construct: expressed in transfected cells; host or cells: HEK-293 (retroviral expression; whole cells)
The experiment in a line: BRET NOP-RLuc/β-arrestin 2-RGFP interaction, HEK-293 cells. In kind it is cell-based.

For another data set, the target named is T9, human NOP receptor (Homo sapiens, UniProt P41146).
T9 construct: expressed in transfected cells; host or cells: CHO
T9 sequence (P41146 whole entry): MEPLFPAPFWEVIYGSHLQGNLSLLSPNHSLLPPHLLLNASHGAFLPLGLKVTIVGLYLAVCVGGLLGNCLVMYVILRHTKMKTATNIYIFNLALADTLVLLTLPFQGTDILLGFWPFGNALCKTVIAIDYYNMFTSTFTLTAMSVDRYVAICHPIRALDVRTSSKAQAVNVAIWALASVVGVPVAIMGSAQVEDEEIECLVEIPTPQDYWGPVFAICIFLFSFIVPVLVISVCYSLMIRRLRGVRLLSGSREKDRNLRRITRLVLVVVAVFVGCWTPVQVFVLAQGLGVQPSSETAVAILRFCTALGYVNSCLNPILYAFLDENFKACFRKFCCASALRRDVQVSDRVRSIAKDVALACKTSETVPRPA
As to the kind of experiment: Calcium mobilisation, CHO cells with NOP and Gαqi5. In kind it is cell-based.

The target of data set [11] is T4, Delta receptor (CHOhDelta). As to the kind of experiment: Displacement binding of [3H]-DPN, CHOhDelta membranes. To be noted: SEM. The procedure: as §1, §2
Data set [12] has as its target T3, Kappa receptor (CHOhKappa). As to the kind of experiment: Displacement binding of [3H]-DPN, CHOhKappa membranes. Particulars: SEM. The protocol: as §1, §2

Consider one compound from article PMC4896453 (PLoS ONE, 2016).

In general, EC50 refers to the concentration giving half of the maximal effect. In general, Ki refers to the equilibrium dissociation constant of an inhibitor or competing ligand from its target. Lower therefore signals tighter binding. One may read the Emax as the size of the effect at its maximum, as opposed to the concentration needed.

Molecules are shown by their SMILES.

T2 sequence (P41146 whole entry): as above
T1 sequence (P35372 whole entry): as the sequence (P35372 whole entry, looked up) above
T7 sequence (P35372 whole entry): as the sequence (P35372 whole entry, looked up) above
T8 sequence (P41146+P27652 fused): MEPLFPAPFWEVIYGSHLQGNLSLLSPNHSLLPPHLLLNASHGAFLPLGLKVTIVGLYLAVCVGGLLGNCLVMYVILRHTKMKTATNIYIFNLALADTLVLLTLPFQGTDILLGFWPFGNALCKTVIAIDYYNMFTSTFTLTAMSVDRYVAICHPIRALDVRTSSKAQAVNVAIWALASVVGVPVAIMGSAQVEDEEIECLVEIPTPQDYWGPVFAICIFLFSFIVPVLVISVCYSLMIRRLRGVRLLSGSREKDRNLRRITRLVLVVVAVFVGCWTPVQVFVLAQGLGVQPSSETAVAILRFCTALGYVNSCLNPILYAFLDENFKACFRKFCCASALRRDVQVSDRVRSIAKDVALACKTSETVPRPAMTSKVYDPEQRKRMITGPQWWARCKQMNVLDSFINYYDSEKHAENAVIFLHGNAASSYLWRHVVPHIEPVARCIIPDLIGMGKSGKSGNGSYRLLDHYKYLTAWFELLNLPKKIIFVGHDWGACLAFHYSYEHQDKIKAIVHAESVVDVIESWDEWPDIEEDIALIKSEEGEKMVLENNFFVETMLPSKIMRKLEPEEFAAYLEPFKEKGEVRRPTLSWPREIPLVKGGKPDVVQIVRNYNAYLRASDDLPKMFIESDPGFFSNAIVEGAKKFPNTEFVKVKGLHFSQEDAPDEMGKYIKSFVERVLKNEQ
T8 sequence (P32121 whole entry partner): as the sequence (P32121 whole entry partner) above
Sequence of human NOP receptor (NOP-RLuc/Gβ1-RGFP) (P41146 whole entry, looked up): as the sequence (P41146 whole entry) above

Take `CC(C)C[C@H](NC(=O)[C@H](CCCCN)NC(=O)[C@H](CCCNC(=N)N)NC(=O)[C@H](C)NC(=O)[C@H](CO)NC(=O)[C@H](CCCCN)NC(=O)[C@H](CCCNC(=N)N)NC(=O)[C@H](C)NC(=O)CNC(=O)[C@@H](NC(=O)[C@H](Cc1ccccc1)NC(=O)CNC(=O)CNC(=O)[C@@H](N)Cc1ccccc1)[C@@H](C)O)C(=O)N[C@@H](C)C(=O)N[C@@H](CC(N)=O)C(=O)N[C@@H](CCC(N)=O)C(=O)N[C@@H](CSC1CC(=O)N(CCCC(=O)NCCCC[C@H](NC(=O)[C@H](CO)NC(=O)[C@@H]2CCCN2C(=O)[C@H](Cc2ccc(O)cc2)NC(=O)CNC(=O)[C@H](Cc2ccccc2)NC(=O)[C@@H](C)NC(=O)[C@@H](N)Cc2ccc(O)cc2)C(N)=O)C1=O)C(N)=O` (stereo partly drawn) [DeNo]: the concentration giving a half-maximal response (EC50) is 17 nM at Mu receptor (CHOhMu) [1]; 0.316 nM at NOP receptor (CHOhNOP) [2]; 1200 nM in data set [3]; 0.955 nM in [4]; 166 nM in [5]; 437 nM in data set [7]. Besides, the 50% effective concentration (EC50) is 9.77 nM in data set [8], 67.6 nM at human Mu receptor, 6.46 nM in data set [10] and 0.204 nM at human NOP receptor. In addition, the Ki at Mu receptor (CHOhMu) [6] is 0.282 nM; on NOP receptor (CHOhNOP) [9] (SEM), 0.0603 nM; in [11], 7.59 nM; in data set [12], 45.7 nM. Besides, in the data set with rats, the “animal performance in the rotarod test” value was “impaired animal performance in the rotarod test”. Further, at NOP receptor (CHOhNOP) [9] (from pKi values), the “NOP selectivity over Mu in binding” value was ~ 5 fold. For the same compound, the maximal response (Emax) on human Mu receptor (calcium mobilisation, % over basal fluorescence, CHO cells with human Mu and Gαqi5, at least 3 experiments in duplicate, SEM) was 209 ± 15%; at human NOP receptor (calcium mobilisation, % over basal fluorescence, CHO cells with human NOP and Gαqi5, at least 3 experiments in duplicate, SEM), 244 ± 6%.
